Experimental data reported in patent US20040082479A1, “Method for soil sterilization from pathogens” (priority 2001, published 2004).

Columns and labels:
[1] = system: Fusarium oxysporum f. sp. vasinfectum; test: Linear (radial) growth of fungi in vitro on potato dextrose agar with allicin; type: cell-based; conditions: PDA; for Linear growth, mm radius of growth: 0.1 ml allicin solution 2 mg/ml; for Effect on growth of the fungus (in words): in vitro
Procedure: (§1) Pure allicin in aqueous solution at 2 mg/ml was obtained as previously described in International PCT Publication WO 97/39115, following the interaction of synthetic, nature-identical alliin (allylcysteine sulfoxide) with a preparation of stabilized garlic alliinase. Fungal plant pathogens were grown in soil as previously described (Ko et al, 1971). Contamination of soil with Rhizoctonia solani and infection of bean seedlings was determined as previously reported (Chet, 1987).
(§2) The effect of allicin on the growth of a number of known soil fungal pathogens was examined in vitro. Fungi were innoculated in Petri dishes containing potato dextrose agar (PDA, Difco) and the radial growth rate of the fungi was measured every 24 hours. The effect of the addition of 0.1 ml of a solution of allicin (2.0 mg/ml) on the radial growth rate of the pathogen was determined after 24, 48, 72 and 96 hours.

Rhizoctonia solani Kuhn = test: as above; type: cell-based; conditions: PDA; for Linear growth, mm radius of growth: 0.1 ml allicin solution 2 mg/ml; for Effect on growth of the fungus (in words): in vitro
Procedure: as §1, §2

Sclerotinia sclerotiorum = test: as above; type: cell-based; conditions: PDA; for Linear growth, mm radius of growth: 0.1 ml allicin solution 2 mg/ml; for Effect on growth of the fungus (in words): in vitro
Procedure: as §1, §2

Sclerotium Rolfsii Sacc. = test: as above; type: cell-based; conditions: PDA; for Linear growth, mm radius of growth: 0.1 ml allicin solution 2 mg/ml; for Effect on growth of the fungus (in words): in vitro
Procedure: as §1, §2

Trichoderma hurzianum = test: as above; type: cell-based; conditions: PDA; for Linear growth, mm radius of growth: 0.1 ml allicin solution 2 mg/ml; for Effect on growth of the fungus (in words): in vitro
Procedure: as §1, §2

Rhizoctonia solani = test: Diseased bean plants (Phaseolus vulgaris L.) grown in Rhizoctonia solani contaminated soil pre-treated with allicin; type: in vivo
Procedure: as §1
Boxes with raw red-brown, sandy loam soil (0.5 Kg) 1.0 were precontaminated with viable Rhizoctonia solani. The fungi-contaminated soil in the boxes were subsequently irrigated with aqueous solutions (30 ml/box) containing different concentrations of allicin (A: 0.31 mg allicin/ml; B: 0.62 mg allicin/ml; C: 0.94 mg allicin/ml; D: 1.25 mg allicin/ml). Irrigations were repeated 3 times, with 3 days intervals between treatments. Controls were irrigated with similar volumes of water. Four soil replicates were irrigated for each allicin concentration as well as for the control. Following each irrigation step, the soil boxes were closed in nylon bags. Four days after the last irrigation, the bags were opened and the boxes with the soil ventilated for 5 more days.
Bean seeds (Phaseolus vulgaris L.) (10/box) were then planted in each of the boxes and the growth and development of disease in the plants was determined after 14 days. As shown in Table 2 and FIGS. 1-2, black columns, 86% of the control plants became diseased whereas in soil pre-irrigated with 0.94 (FIGS. 1-2, C) and 1.25 (FIGS. 1-2, D) mg/ml allicin, less than 20% of the plants became diseased (decrease of >80% in diseased plants, FIG. 2). The effect of allicin was dose-dependent and at the lowest concentration tested (0.31 mg allicin/ml), the decrease in the number of diseased plants was only 14% (Table 2 and FIGS. 1-2, black columns).
In order to test the time length efficacy of soil that was pre-treated with allicin, an additional experiment was done in the same soil boxes. After the first cycle of the bean growth experiment for 14 days described above, the plants were removed and a second cycle of bean growth was conducted whereby a new set of bean seeds was immediately seeded in the same soil boxes and the development of disease in the plants grown in this second cycle was determined after 14 days. The results are shown in Table 2 and in FIGS. 1-2, gray columns. […] Some protection (33%) was also observed in soils irrigated with 0.94 mg allicin/ml (C).

## C=CCS[S+]([O-])CC=C (stereo not shown) [Allicin, thio-2-propene-1-sulfinic acid S-allyl ester]
[1]; 24 hrs
  Linear growth, mm radius of growth: 2.5 mm
[1]; 48 hrs
  Linear growth, mm radius of growth: 7.5 mm
[1]; 72 hrs
  Linear growth, mm radius of growth: 12.5 mm
[1]; 96 hrs
  Linear growth, mm radius of growth: 15 mm
[1]
  Effect on growth of the fungus (in words): Very significant inhibition of growth
Rhizoctonia solani Kuhn; 24 hrs
  Linear growth, mm radius of growth: 2.5 mm
Rhizoctonia solani Kuhn; 48 hrs
  Linear growth, mm radius of growth: 7.5 mm
Rhizoctonia solani Kuhn; 72 hrs
  Linear growth, mm radius of growth: 15 mm
Rhizoctonia solani Kuhn
  Effect on growth of the fungus (in words): Very significant inhibition of growth
Sclerotinia sclerotiorum; 24 hrs
  Linear growth, mm radius of growth: 0.5 mm
Sclerotinia sclerotiorum; 48 hrs
  Linear growth, mm radius of growth: 7.5 mm
Sclerotinia sclerotiorum; 72 hrs
  Linear growth, mm radius of growth: 20 mm
Sclerotinia sclerotiorum; 96 hrs
  Linear growth, mm radius of growth: 45 mm
Sclerotinia sclerotiorum
  Effect on growth of the fungus (in words): Very significant inhibition of growth
Sclerotium Rolfsii Sacc.; 24 hrs
  Linear growth, mm radius of growth: 0 mm
Sclerotium Rolfsii Sacc.; 48 hrs
  Linear growth, mm radius of growth: 2.5 mm
Sclerotium Rolfsii Sacc.; 72 hrs
  Linear growth, mm radius of growth: 15 mm
Sclerotium Rolfsii Sacc.
  Effect on growth of the fungus (in words): Very significant inhibition of growth
Trichoderma hurzianum; 24 hrs
  Linear growth, mm radius of growth: 2.5 mm
Trichoderma hurzianum; 48 hrs
  Linear growth, mm radius of growth: 7.5 mm
Trichoderma hurzianum; 72 hrs
  Linear growth, mm radius of growth: 22.5 mm
Trichoderma hurzianum
  Effect on growth of the fungus (in words): Very significant inhibition of growth
Rhizoctonia solani; First Cycle (14 days after planting), treatment A: 0.31 mg allicin/ml (30 ml), 3 irrigations, 0.5 Kg soil
  Diseased Plants (%): 74%
Rhizoctonia solani; First Cycle (14 days after planting), treatment B: 0.62 mg allicin/ml (30 ml), 3 irrigations, 0.5 Kg soil
  Diseased Plants (%): 39%
Rhizoctonia solani; First Cycle (14 days after planting), treatment C: 0.94 mg allicin/ml (30 ml), 3 irrigations, 0.5 Kg soil
  Diseased Plants (%): 16%
Rhizoctonia solani; First Cycle (14 days after planting), treatment C: 0.94 mg allicin/ml (30 ml), 3 irrigations, 0.5 Kg soil, listed as allicin
  Diseased Plants (%): less than 20%
Rhizoctonia solani; First Cycle (14 days after planting), treatment D: 1.25 mg allicin/ml (30 ml), 3 irrigations, 0.5 Kg soil
  Diseased Plants (%): 18%
Rhizoctonia solani; First Cycle (14 days after planting), treatment D: 1.25 mg allicin/ml (30 ml), 3 irrigations, 0.5 Kg soil, listed as allicin
  Diseased Plants (%): less than 20%
Rhizoctonia solani; First Cycle, treatment A: 0.31 mg allicin/ml (30 ml)
  Diseased Reduction (%): 14%
Rhizoctonia solani; First Cycle, treatment B: 0.62 mg allicin/ml (30 ml)
  Diseased Reduction (%): 55%
Rhizoctonia solani; First Cycle, treatment C: 0.94 mg allicin/ml (30 ml)
  Diseased Reduction (%): 81%
Rhizoctonia solani; First Cycle, treatment C: 0.94 mg allicin/ml (30 ml), listed as allicin
  Diseased Reduction (%): > 80%
Rhizoctonia solani; First Cycle, treatment D: 1.25 mg allicin/ml (30 ml)
  Diseased Reduction (%): 90%
Rhizoctonia solani; First Cycle, treatment D: 1.25 mg allicin/ml (30 ml), listed as allicin
  Diseased Reduction (%): > 80%
Rhizoctonia solani; Second Cycle (14 days after replanting), treatment A: 0.31 mg allicin/ml (30 ml)
  Diseased Plants (%): 90%
Rhizoctonia solani; Second Cycle (14 days after replanting), treatment A: 0.31 mg allicin/ml (30 ml), listed as allicin
  Diseased Plants (%): almost identical to that of the controls
Rhizoctonia solani; Second Cycle (14 days after replanting), treatment B: 0.62 mg allicin/ml (30 ml)
  Diseased Plants (%): 80%
Rhizoctonia solani; Second Cycle (14 days after replanting), treatment B: 0.62 mg allicin/ml (30 ml), listed as allicin
  Diseased Plants (%): almost identical to that of the controls
Rhizoctonia solani; Second Cycle (14 days after replanting), treatment C: 0.94 mg allicin/ml (30 ml)
  Diseased Plants (%): 60%
Rhizoctonia solani; Second Cycle (14 days after replanting), treatment D: 1.25 mg allicin/ml (30 ml)
  Diseased Plants (%): 30%
Rhizoctonia solani; Second Cycle, treatment A: 0.31 mg allicin/ml (30 ml)
  Diseased Reduction (%): 0%
Rhizoctonia solani; Second Cycle, treatment B: 0.62 mg allicin/ml (30 ml)
  Diseased Reduction (%): 11%
Rhizoctonia solani; Second Cycle, treatment C: 0.94 mg allicin/ml (30 ml)
  Diseased Reduction (%): 33%
Rhizoctonia solani; Second Cycle, treatment D: 1.25 mg allicin/ml (30 ml)
  Diseased Reduction (%): 66%

## allylcysteine sulfoxide [alliin, reference compound]
[1]
  Effect on growth of the fungus (in words): no effect
Rhizoctonia solani Kuhn
  Effect on growth of the fungus (in words): no effect
Sclerotinia sclerotiorum
  Effect on growth of the fungus (in words): no effect
Sclerotium Rolfsii Sacc.
  Effect on growth of the fungus (in words): no effect
Trichoderma hurzianum
  Effect on growth of the fungus (in words): no effect
